{
  "source": "patent US9149038B2",
  "about": "“4-amino-6-(heterocyclic)picolinates and 6-amino-2-(heterocyclic)pyrimidine-4-carboxylates and their use as herbicides” (Dow AgroSciences LLC, priority 2013, dated 2015)",
  "format_in_all_cases": "in vivo",
  "key": {"[1]": {"system": "Key Broadleaf and Grass Weed as well as Crop Species", "assay": "Post-Emergent Test I: postemergent herbicidal activity, visual phytotoxicity rating 10 days after treatment (Table 5)", "conditions": "4 kg ai/ha; for pest or weed control at 4000 g/ha: post-emergence, 240 h, 10 days after application", "method": "Herbicidal evaluations were made visually on a scale of 0 to 100 where 0 represents no activity and 100 represents complete plant death. Post-Emergent Test I: Seeds of test species were obtained from commercial suppliers and planted into a 5″-round pot containing soil-less media mix (Metro-Mix 360®, Sun Gro Horticulture). Postemergence treatments were planted 8-12 days (d) prior to application and cultured in a greenhouse equipped with supplemental light sources to provide a 16 h photoperiod at 24-29° C. All pots were surface irrigated. Approximately 10 milligrams (mg) of each compound were dissolved in 1.3 mL acetone-DMSO (97:3, volume per volume (v/v)) and diluted with 4.1 mL water-isopropanol-crop oil concentrate (78:20:2, v/v/v) containing 0.02% Triton X-155. Treatments were serial diluted with the above formulation solvent to provide 1.85, 0.926, 0.462 and 0.231 milligrams per milliliter (mg/mL) of test compound delivered in 2.7 mL/pot (roughly equivalent to 4.0, 2.0, 1.0, and 0.5 kg/ha, respectively). Formulated compounds were applied using a DeVilbiss® compressed air sprayer at 2-4 pounds per square inch (psi). Following treatment, pots were returned to the greenhouse for the duration of the experiment. All pots were sub-irrigated as needed to provide optimum growing conditions. All pots were fertilized one time per week by subirrigating with Peters Peat-Lite Special® fertilizer (20-10-20). Phytotoxicity ratings were obtained 10 days after treatment postemergence applications. All evaluations were made visually on a scale of 0 to 100 where 0 represents no activity and 100 represents complete plant death and are presented as indicated in Table 4."}, "[2]": {"system": "Key Grass and Sedge Weeds as well as Grass Crops", "assay": "Post-Emergent Test II: postemergent herbicidal activity, visual rating after 14 d (Table 8)", "conditions": "post-emergence, 336 h; for pest or weed control at 35 g/ha: 35 g ai/ha; for pest or weed control at 70 g/ha: 70 g ai/ha; for pest or weed control at 140 g/ha: 140 g ai/ha; for pest or weed control at 280 g/ha: 280 g ai/ha", "outline": "(§1)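 Track-sprayed young seedlings (first/second true leaf) at 187 L/ha across a 2-fold rate series from the high rate down to 1/16×. Kept in greenhouse at 23-29° C day, subirrigated. Injury rated by eye after 14 d, 0 = no injury, 100 = complete kill.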"}, "[3]": {"system": "Key Broadleaf Weed and Crop Species", "assay": "Post-Emergent Test II: postemergent herbicidal activity, visual rating after 14 d (Table 7)", "conditions": "post-emergence, 336 h; for pest or weed control at 35 g/ha: 35 g ai/ha; for pest or weed control at 70 g/ha: 70 g ai/ha; for pest or weed control at 140 g/ha: 140 g ai/ha; for pest or weed control at 280 g/ha: 280 g ai/ha", "outline": "as §1"}, "[4]": {"conditions": "barnyardgrass (Echinochloa crus-galli), read-out: Visual Growth Reduction (%) 14 Days After Application ECHCG"}, "[5]": {"conditions": "giant foxtail (Setaria faberi), read-out: Visual Growth Reduction (%) 14 Days After Application SETFA"}, "[6]": {"conditions": "maize, corn (Zea mays), read-out: Visual Growth Reduction (%) 14 Days After Application ZEAMX"}, "[7]": {"conditions": "rice (Oryza sativa), read-out: Visual Growth Reduction (%) 14 Days After Application ORYSA"}, "[8]": {"conditions": "wheat, spring (Triticum aestivum), read-out: Visual Growth Reduction (%) 14 Days After Application TRZAS"}, "[9]": {"conditions": "yellow nutsedge (Cyperus esculentus), read-out: Visual Growth Reduction (%) 14 Days After Application CYPES"}, "[10]": {"conditions": "lambsquarters (Chenopodium album), read-out: Visual Growth Reduction (%) 14 Days After Application CHEAL"}, "[11]": {"conditions": "oilseed rape, canola (Brassica napus), read-out: Visual Growth Reduction (%) 14 Days After Application BRSNN"}, "[12]": {"conditions": "redroot pigweed (Amaranthus retroflexus), read-out: Visual Growth Reduction (%) 14 Days After Application AMARE"}, "[13]": {"conditions": "sunflower (Helianthus annuus), read-out: Visual Growth Reduction (%) 14 Days After Application HELAN"}, "[14]": {"conditions": "velvetleaf (Abutilon theophrasti), read-out: Visual Growth Reduction (%) 14 Days After Application ABUTH"}, "[15]": {"conditions": "wild poinsettia (Euphorbia heterophylla), read-out: Visual Growth Reduction (%) 14 Days After Application EPHHL"}},
  "note": "Like-named read-outs stand apart in the source and are kept apart here.",
  "data": [
    {"compound": "COC(=O)c1nc(-c2cccc3c2OCO3)c(F)c(N)c1Cl", "note": "[Compound 71, Methyl 4-amino-6-(benzo[d][1,3]dioxol-4-yl)-3-chloro-5-fluoropicolinate]", "values": [
      {"measurement": "Visual Growth Reduction (%) 10 Days After Application ECHCG", "setting": "[1]; barnyardgrass (Echinochloa crus-galli)", "value": "G (0-29)"},
      {"measurement": "pest or weed control at 4000 g/ha", "setting": "[1]; giant foxtail (Setaria faberi), read-out: Visual Growth Reduction (%) 10 Days After Application SETFA", "value": "0 to 29", "unit": "%"},
      {"measurement": "pest or weed control at 4000 g/ha", "setting": "[1]; ivyleaf morningglory (Ipomoea hederecea), read-out: Visual Growth Reduction (%) 10 Days After Application IPOHE", "value": "75 to 84", "unit": "%"},
      {"measurement": "pest or weed control at 4000 g/ha", "setting": "[1]; sunflower (Helianthus annuus), read-out: Visual Growth Reduction (%) 10 Days After Application HELAN", "value": "95 to 100", "unit": "%"},
      {"measurement": "pest or weed control at 4000 g/ha", "setting": "[1]; wild oats (Avena fatua), read-out: Visual Growth Reduction (%) 10 Days After Application AVEFA", "value": "0 to 29", "unit": "%"},
      {"measurement": "pest or weed control at 35 g/ha", "setting": "[2]; [4]", "value": "0 to 29", "unit": "%"},
      {"measurement": "pest or weed control at 70 g/ha", "setting": "[2]; [4]", "value": "0 to 29", "unit": "%"},
      {"measurement": "pest or weed control at 140 g/ha", "setting": "[2]; [4]", "value": "0 to 29", "unit": "%"},
      {"measurement": "pest or weed control at 280 g/ha", "setting": "[2]; [4]", "value": "0 to 29", "unit": "%"},
      {"measurement": "pest or weed control at 35 g/ha", "setting": "[2]; [5]", "value": "0 to 29", "unit": "%"},
      {"measurement": "pest or weed control at 70 g/ha", "setting": "[2]; [5]", "value": "0 to 29", "unit": "%"},
      {"measurement": "pest or weed control at 140 g/ha", "setting": "[2]; [5]", "value": "0 to 29", "unit": "%"},
      {"measurement": "pest or weed control at 280 g/ha", "setting": "[2]; [5]", "value": "0 to 29", "unit": "%"},
      {"measurement": "pest or weed control at 35 g/ha", "setting": "[2]; [6]", "value": "0 to 29", "unit": "%"},
      {"measurement": "pest or weed control at 70 g/ha", "setting": "[2]; [6]", "value": "0 to 29", "unit": "%"},
      {"measurement": "pest or weed control at 140 g/ha", "setting": "[2]; [6]", "value": "0 to 29", "unit": "%"},
      {"measurement": "pest or weed control at 280 g/ha", "setting": "[2]; [6]", "value": "0 to 29", "unit": "%"},
      {"measurement": "pest or weed control at 35 g/ha", "setting": "[2]; [7]", "value": "0 to 29", "unit": "%"},
      {"measurement": "pest or weed control at 70 g/ha", "setting": "[2]; [7]", "value": "0 to 29", "unit": "%"},
      {"measurement": "pest or weed control at 140 g/ha", "setting": "[2]; [7]", "value": "0 to 29", "unit": "%"},
      {"measurement": "pest or weed control at 280 g/ha", "setting": "[2]; [7]", "value": "0 to 29", "unit": "%"},
      {"measurement": "pest or weed control at 35 g/ha", "setting": "[2]; [8]", "value": "0 to 29", "unit": "%"},
      {"measurement": "pest or weed control at 70 g/ha", "setting": "[2]; [8]", "value": "0 to 29", "unit": "%"},
      {"measurement": "pest or weed control at 140 g/ha", "setting": "[2]; [8]", "value": "0 to 29", "unit": "%"},
      {"measurement": "pest or weed control at 280 g/ha", "setting": "[2]; [8]", "value": "0 to 29", "unit": "%"},
      {"measurement": "pest or weed control at 35 g/ha", "setting": "[2]; [9]", "value": "0 to 29", "unit": "%"},
      {"measurement": "pest or weed control at 70 g/ha", "setting": "[2]; [9]", "value": "0 to 29", "unit": "%"},
      {"measurement": "pest or weed control at 140 g/ha", "setting": "[2]; [9]", "value": "30 to 44", "unit": "%"},
      {"measurement": "pest or weed control at 280 g/ha", "setting": "[2]; [9]", "value": "45 to 59", "unit": "%"},
      {"measurement": "pest or weed control at 35 g/ha", "setting": "[3]; [10]", "value": "95 to 100", "unit": "%"},
      {"measurement": "pest or weed control at 70 g/ha", "setting": "[3]; [10]", "value": "95 to 100", "unit": "%"},
      {"measurement": "pest or weed control at 140 g/ha", "setting": "[3]; [10]", "value": "95 to 100", "unit": "%"},
      {"measurement": "pest or weed control at 280 g/ha", "setting": "[3]; [10]", "value": "95 to 100", "unit": "%"},
      {"measurement": "pest or weed control at 35 g/ha", "setting": "[3]; [11]", "value": "30 to 44", "unit": "%"},
      {"measurement": "pest or weed control at 70 g/ha", "setting": "[3]; [11]", "value": "85 to 94", "unit": "%"},
      {"measurement": "pest or weed control at 140 g/ha", "setting": "[3]; [11]", "value": "85 to 94", "unit": "%"},
      {"measurement": "pest or weed control at 280 g/ha", "setting": "[3]; [11]", "value": "95 to 100", "unit": "%"},
      {"measurement": "pest or weed control at 35 g/ha", "setting": "[3]; [12]", "value": "60 to 74", "unit": "%"},
      {"measurement": "pest or weed control at 70 g/ha", "setting": "[3]; [12]", "value": "95 to 100", "unit": "%"},
      {"measurement": "pest or weed control at 140 g/ha", "setting": "[3]; [12]", "value": "95 to 100", "unit": "%"},
      {"measurement": "pest or weed control at 280 g/ha", "setting": "[3]; [12]", "value": "95 to 100", "unit": "%"},
      {"measurement": "pest or weed control at 35 g/ha", "setting": "[3]; [13]", "value": "85 to 94", "unit": "%"},
      {"measurement": "pest or weed control at 70 g/ha", "setting": "[3]; [13]", "value": "95 to 100", "unit": "%"},
      {"measurement": "pest or weed control at 140 g/ha", "setting": "[3]; [13]", "value": "95 to 100", "unit": "%"},
      {"measurement": "pest or weed control at 280 g/ha", "setting": "[3]; [13]", "value": "95 to 100", "unit": "%"},
      {"measurement": "pest or weed control at 35 g/ha", "setting": "[3]; [14]", "value": "60 to 74", "unit": "%"},
      {"measurement": "pest or weed control at 70 g/ha", "setting": "[3]; [14]", "value": "75 to 84", "unit": "%"},
      {"measurement": "pest or weed control at 140 g/ha", "setting": "[3]; [14]", "value": "95 to 100", "unit": "%"},
      {"measurement": "pest or weed control at 280 g/ha", "setting": "[3]; [14]", "value": "95 to 100", "unit": "%"},
      {"measurement": "pest or weed control at 35 g/ha", "setting": "[3]; [15]", "value": "0 to 29", "unit": "%"},
      {"measurement": "pest or weed control at 70 g/ha", "setting": "[3]; [15]", "value": "0 to 29", "unit": "%"},
      {"measurement": "pest or weed control at 140 g/ha", "setting": "[3]; [15]", "value": "0 to 29", "unit": "%"},
      {"measurement": "pest or weed control at 280 g/ha", "setting": "[3]; [15]", "value": "0 to 29", "unit": "%"}
    ]}
  ]
}
